The results in this text go back to US11078202B2, “β-lactamase inhibitor and use thereof” (priority 2018, dated 2021).

Where a name gives a salt, the structure may show the parent alone.

What all share (type): cell-based
The subject of test [1] is Klebsiella pneumoniae XNWB 0001. Description: MIC assay of test compounds combined with ceftazidime (8 μg/mL). The conditions noted are these: ceftazidime 8 μg/mL fixed. An outline of the steps:
(§1)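 Colonies from 20-24 h TSA plates (35±2 °C) → saline, OD600 0.1-0.15 → 300-fold dilution in 1.1×CAMHB → added to compound plus fixed antibiotic wells, growth and sterility controls included → 16-20 h at 35±2 °C → MIC by CLSI criteria.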

The test system of test [2] is Klebsiella pneumoniae XNWB 0006. The description is as above. To be noted: ceftazidime 8 μg/mL fixed. An outline of the steps:
as §1

Test [3] deals with Klebsiella pneumoniae XNWB 0004. The test is described as above. To be noted: ceftazidime 8 μg/mL fixed. An outline of the steps:
as §1

Test [4] has as its system Klebsiella pneumoniae XNWB 0002. Described as above. To be noted: ceftazidime 8 μg/mL fixed. An outline of the steps:
as §1

Test [5] has as its system Pseudomonas aeruginosa XNWB 0008. Described as above. The conditions noted are these: ceftazidime 8 μg/mL fixed. An outline of the steps:
as §1

The subject of test [6] is Klebsiella pneumoniae XNWB 0003. The description is as above. To be noted: ceftazidime 8 μg/mL fixed. An outline of the steps:
as §1

For test [7], the system named is Acinetobacter baumannii XNWB 0007. The description is as above. The conditions noted are these: ceftazidime 8 μg/mL fixed. An outline of the steps: as §1
Test [8] has as its system Klebsiella pneumoniae XNWB 0005. The test is described as above. To be noted: ceftazidime 8 μg/mL fixed. An outline of the steps: as §1
Test [9] has as its system Klebsiella pneumoniae XNWB 0001. Description: MIC assay of test compounds combined with imipenem (4 μg/mL). To be noted: imipenem 4 μg/mL fixed. An outline of the steps: as §1
For test [10], the system named is Klebsiella pneumoniae XNWB 0006. The description is as above. The conditions noted are these: imipenem 4 μg/mL fixed. An outline of the steps:
as §1

The test system of test [11] is Klebsiella pneumoniae XNWB 0004. Described as above. To be noted: imipenem 4 μg/mL fixed. An outline of the steps:
as §1

Test [12] has as its system Klebsiella pneumoniae XNWB 0002. Described as above. To be noted: imipenem 4 μg/mL fixed. An outline of the steps:
as §1

Test [13] concerns Pseudomonas aeruginosa XNWB 0008. Described as above. To be noted: imipenem 4 μg/mL fixed. An outline of the steps: as §1
Test [14] has as its system Klebsiella pneumoniae XNWB 0003. Described as above. The conditions noted are these: imipenem 4 μg/mL fixed. An outline of the steps:
as §1

For test [15], the system named is Acinetobacter baumannii XNWB 0007. Described as above. The conditions noted are these: imipenem 4 μg/mL fixed. An outline of the steps:
as §1

In test [16] the test system is Klebsiella pneumoniae XNWB 0005. Described as above. To be noted: imipenem 4 μg/mL fixed. An outline of the steps:
as §1

In the case of `NCC(O)c1nnc([C@@H]2CC3(CC3)[C@@H]3CN2C(=O)N3OS(=O)(=O)O)o1` (stereo partly drawn) [Example 9, (1R,4S)-4-(5-(2-amino-1-hydroxyethyl)-1,3,4-oxadiazol-2-yl)-6-oxo-5,7-diazaspiro [bicyclo[3.2.1]octane-2,1′-cyclopropan]-7-yl sulfate], the “The minimum concentration of test compounds combined with ceftazidime (8 μg/mL) for bacteriostasis” value is “A (A: <8 μg/mL)” in [1]; “A (A: <8 μg/mL)” in test [2]; “A (A: <8 μg/mL)” in [3]; “A (A: <8 μg/mL)” in test [4]; “B (B: 8-16 μg/mL)” in test [5]; “A (A: <8 μg/mL)” in test [6]. Further, the “The minimum concentration of test compounds combined with ceftazidime (8 μg/mL) for bacteriostasis” value in test [7] is given as “C (C: 16-128 μg/mL)”; in test [8], “A (A: <8 μg/mL)”. The “The minimum concentration of test compounds combined with imipenem (4 μg/mL) for bacteriostasis” value in test [9], in [10], in test [11], in [12], in test [13] and in test [14] was “A (A: <8 μg/mL)” each time. The “The minimum concentration of test compounds combined with imipenem (4 μg/mL) for bacteriostasis” value in [15] and in test [16] was “A (A: <8 μg/mL)” each time.

With `N=C1NC[C@@H](c2nnc([C@@H]3CC4(CC4)[C@@H]4CN3C(=O)N4OS(=O)(=O)O)o2)N1` [Example 55, (1R,4S)-4-(5-((S)-2-iminoimidazolidin-4-yl)-1,3,4-oxadiazol-2-yl)-6-oxo-5,7-diazaspiro [bicyclo[3.2.1]octane-2,1′-cyclopropan]-7-yl sulfate], the “The minimum concentration of test compounds combined with ceftazidime (8 μg/mL) for bacteriostasis” value in test [1] is given as “A (A: <8 μg/mL)”; in test [2], “A (A: <8 μg/mL)”; in [3], “A (A: <8 μg/mL)”; in test [4], “A (A: <8 μg/mL)”; in test [5] it was “B (B: 8-16 μg/mL)”; in [6], “A (A: <8 μg/mL)”. The “The minimum concentration of test compounds combined with ceftazidime (8 μg/mL) for bacteriostasis” value is on record as “C (C: 16-128 μg/mL)” in test [7] and “A (A: <8 μg/mL)” in [8]. The “The minimum concentration of test compounds combined with imipenem (4 μg/mL) for bacteriostasis” value in test [9], in test [10], in test [11], in test [12], in test [13] and in test [14] was “A (A: <8 μg/mL)” each time. The “The minimum concentration of test compounds combined with imipenem (4 μg/mL) for bacteriostasis” value in [15] and in test [16] was “A (A: <8 μg/mL)” throughout.

`N=C(N)NCCc1nnc([C@@H]2CC3(CC3)[C@@H]3CN2C(=O)N3OS(=O)(=O)O)o1` [Example 5, (1R,4S)-4-(5-(2-guanidinoethyl)-1,3,4-oxadiazol-2-yl)-6-oxo-5,7-diazaspiro[bicycle [3.2.1]octane-2,1′-cyclopropan]-7-yl sulfate]: the “The minimum concentration of test compounds combined with ceftazidime (8 μg/mL) for bacteriostasis” value was “A (A: <8 μg/mL)” in test [1]; “A (A: <8 μg/mL)” in [2]; “B (B: 8-16 μg/mL)” in test [3]; “A (A: <8 μg/mL)” in test [4]; “C (C: 16-128 μg/mL)” in test [5]; “A (A: <8 μg/mL)” in test [6]. The figures for the “The minimum concentration of test compounds combined with ceftazidime (8 μg/mL) for bacteriostasis” value in test [7] and in [8] were “C (C: 16-128 μg/mL)” and “B (B: 8-16 μg/mL)”, respectively. For the same compound, the “The minimum concentration of test compounds combined with imipenem (4 μg/mL) for bacteriostasis” value in [9] is listed as “A (A: <8 μg/mL)”; in test [10], “A (A: <8 μg/mL)”; in test [11] it was “A (A: <8 μg/mL)”; in [12], “A (A: <8 μg/mL)”; in test [13], “B (B: 8-16 μg/mL)”; in [14], “A (A: <8 μg/mL)”. For the same compound, the “The minimum concentration of test compounds combined with imipenem (4 μg/mL) for bacteriostasis” value in test [15] was “B (B: 8-16 μg/mL)”; in [16] it was “A (A: <8 μg/mL)”.

Consider `N=C(N)NCC(O)c1cc([C@@H]2CC3(CC3)[C@@H]3CN2C(=O)N3OS(=O)(=O)O)no1` (stereo partly drawn) [Example 38, (1R,4S)-4-(5-(2-guanidyl-1-hydroxyethyl)isoxazol-3-yl)-6-oxo-5,7-diazaspiro[bicycle [3.2.1]octane-2,1′-cyclopropan]-7-yl sulfate], for which the “The minimum concentration of test compounds combined with ceftazidime (8 μg/mL) for bacteriostasis” value in test [1] is recorded as “A (A: <8 μg/mL)”; in [2], “A (A: <8 μg/mL)”; in [3] it was “A (A: <8 μg/mL)”; in test [4], “A (A: <8 μg/mL)”; in test [5], “B (B: 8-16 μg/mL)”; in test [6] it was “A (A: <8 μg/mL)”. The “The minimum concentration of test compounds combined with ceftazidime (8 μg/mL) for bacteriostasis” value in test [7] is given as “C (C: 16-128 μg/mL)”; in test [8], “A (A: <8 μg/mL)”. The “The minimum concentration of test compounds combined with imipenem (4 μg/mL) for bacteriostasis” value in test [9], in [10], in test [11], in test [12], in [13] and in test [14] was “A (A: <8 μg/mL)” in each case. Further, the “The minimum concentration of test compounds combined with imipenem (4 μg/mL) for bacteriostasis” value in test [15] is on record as “C (C: 16-128 μg/mL)”; in test [16] it was “A (A: <8 μg/mL)”.

Consider `N=C(N)NC[C@@H](O)c1nnc([C@@H]2CC3(CC3)[C@@H]3CN2C(=O)N3OS(=O)(=O)O)o1` [Example 11, (1R,4S)-4-(5-((R)-2-guanidyl-1-hydroxyethyl)-1,3,4-oxadiazol-2-yl)-6-oxo-5,7-diazaspiro[bicyclo[3.2.1]octane-2,1′-cyclopropan]-7-yl sulfate], for which the “The minimum concentration of test compounds combined with ceftazidime (8 μg/mL) for bacteriostasis” value is recorded as “A (A: <8 μg/mL)” in [1]; “A (A: <8 μg/mL)” in test [2]; “A (A: <8 μg/mL)” in test [3]; “A (A: <8 μg/mL)” in [4]; “C (C: 16-128 μg/mL)” in [5]; “A (A: <8 μg/mL)” in [6]. Further, the “The minimum concentration of test compounds combined with ceftazidime (8 μg/mL) for bacteriostasis” value is on record as “C (C: 16-128 μg/mL)” in [7] and “A (A: <8 μg/mL)” in test [8]. Also, the “The minimum concentration of test compounds combined with imipenem (4 μg/mL) for bacteriostasis” value in test [9] is on record as “A (A: <8 μg/mL)”; in [10], “A (A: <8 μg/mL)”; in test [11], “A (A: <8 μg/mL)”; in [12] it was “A (A: <8 μg/mL)”; in [13], “B (B: 8-16 μg/mL)”; in test [14], “A (A: <8 μg/mL)”. Moreover, the “The minimum concentration of test compounds combined with imipenem (4 μg/mL) for bacteriostasis” value in test [15] is “B (B: 8-16 μg/mL)”; in test [16], “A (A: <8 μg/mL)”.
